From PubChem BioAssay AID248 (DTP/NCI, 2004)
Where “and” joins values, the source holds several entries; their conditions need not be identical. Equal entries are not always repeated. Inconclusive results and toxic doses are left out. No stated cut-off is given here; in the data, active means T/C of 150% or more; inactive means T/C below 125%.

Tested on: L1210 leukemia ip in BDF1 mice, survival T/C
Test: NCI In Vivo Anticancer Drug Screen. Data for tumor model L1210 Leukemia (intraperitoneal) in B6D2F1 (BDF1) mice
Conditions: endpoint: mean survival time, higher = longer survival
How it was run: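 Tumor was transplanted into mice, which were then dosed with test compound or vehicle alone. Survival was recorded for each group, and the treated figure was expressed relative to the control figure.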

Measured: T/C

Nc1n[nH]c(N)n1
inactive: dose: 12.5 mg/kg/injection, schedule: Q#A X020 (ip), vehicle: saline 105 % of control | dose: 25.0 mg/kg/injection, schedule: Q01DX010 (ip), vehicle: saline 103 % of control | dose: 25.0 mg/kg/injection, schedule: Q#A X020 (ip), vehicle: saline 109 % of control | dose: 28.0 mg/kg/injection, schedule: Q03HX040 (ip), vehicle: water 105 % of control | dose: 32.0 mg/kg/injection, schedule: Q01DX015 (ip), vehicle: saline 94 % of control | dose: 48.0 mg/kg/injection, schedule: Q## X008 (ip), vehicle: saline 101 % of control | dose: 50.0 mg/kg/injection, schedule: Q01DX010 (ip), vehicle: saline 110 % of control | dose: 50.0 mg/kg/injection, schedule: Q06HX068 (ip), vehicle: water 106 % of control | dose: 56.0 mg/kg/injection, schedule: Q03HX008 (ip), vehicle: water 103 % of control | dose: 56.0 mg/kg/injection, schedule: Q03HX024 (ip), vehicle: water 111 % of control | dose: 63.0 mg/kg/injection, schedule: Q01DX015 (ip), vehicle: saline 102 % of control | dose: 96.0 mg/kg/injection, schedule: Q## X008 (ip), vehicle: saline 102 % of control | dose: 100.0 mg/kg/injection, schedule: Q01DX009 (ip), vehicle: saline 108 % of control | dose: 100.0 mg/kg/injection, schedule: Q01DX009 (sc), vehicle: saline 102 % of control | dose: 100.0 mg/kg/injection, schedule: Q06HX068 (ip), vehicle: water 110 % of control | dose: 100.0 mg/kg/injection, schedule: Q#A X034 (ip), vehicle: water 107 % of control | dose: 111.0 mg/kg/injection, schedule: Q01DX Z (ip), vehicle: methylcellulose (MC) 100 % of control | dose: 112.0 mg/kg/injection, schedule: Q12HX018 (ip), vehicle: water 111 % of control | dose: 125.0 mg/kg/injection, schedule: Q01DX015 (ip), vehicle: saline 110 % of control | dose: 125.0 mg/kg/injection, schedule: Q03HX008 (oral), vehicle: water 107 % of control | dose: 125.0 mg/kg/injection, schedule: Q03HX024 (oral), vehicle: water 105 % of control | dose: 192.0 mg/kg/injection, schedule: Q## X008 (ip), vehicle: saline 104 % of control | dose: 200.0 mg/kg/injection, schedule: Q01DX001 (ip), vehicle: saline 104 % of control and 107 % of control | dose: 200.0 mg/kg/injection, schedule: Q01DX001 (sc), vehicle: saline 104 % of control | dose: 200.0 mg/kg/injection, schedule: Q01DX006 (iv), vehicle: saline 105 % of control | dose: 200.0 mg/kg/injection, schedule: Q01DX009 (sc), vehicle: saline 108 % of control | dose: 200.0 mg/kg/injection, schedule: Q01DX010 (ip), vehicle: saline 98 % of control | dose: 200.0 mg/kg/injection, schedule: Q01DX017 (ip), vehicle: water 111 % of control | dose: 200.0 mg/kg/injection, schedule: Q## X003 (ip), vehicle: saline 110 % of control | dose: 200.0 mg/kg/injection, schedule: Q## X040 (ip), vehicle: saline 104 % of control | dose: 225.0 mg/kg/injection, schedule: Q12HX010 (ip), vehicle: water 107 % of control | dose: 250.0 mg/kg/injection, schedule: Q03HX008 (oral), vehicle: water 107 % of control | dose: 250.0 mg/kg/injection, schedule: Q03HX024 (oral), vehicle: water 102 % of control | dose: 256.0 mg/kg/injection, schedule: Q## X088 (ip), vehicle: other 98 % of control | dose: 384.0 mg/kg/injection, schedule: Q## X008 (ip), vehicle: saline 103 % of control | dose: 395.0 mg/kg/injection, schedule: Q01DX001 (ip), vehicle: saline 101 % of control and 110 % of control | dose: 400.0 mg/kg/injection, schedule: Q01DX001 (ip), vehicle: saline 106 % of control | dose: 400.0 mg/kg/injection, schedule: Q01DX001 (oral), vehicle: water 102 % of control | dose: 400.0 mg/kg/injection, schedule: Q01DX001 (sc), vehicle: saline 102 % of control | dose: 400.0 mg/kg/injection, schedule: Q01DX009 (sc), vehicle: saline 108 % of control | dose: 400.0 mg/kg/injection, schedule: Q01DX010 (ip), vehicle: saline 104 % of control | dose: 400.0 mg/kg/injection, schedule: Q## X003 (ip), vehicle: saline 106 % of control | dose: 400.0 mg/kg/injection, schedule: Q## X024 (ip), vehicle: saline 100 % of control | dose: 400.0 mg/kg/injection, schedule: Q## X040 (ip), vehicle: saline 108 % of control | dose: 450.0 mg/kg/injection, schedule: Q01DX001 (ip), vehicle: water 103 % of control | dose: 500.0 mg/kg/injection, schedule: Q01DX001 (ip), vehicle: water 97 % of control and 102 % of control | dose: 500.0 mg/kg/injection, schedule: Q01DX001 (oral), vehicle: water 104 % of control | dose: 500.0 mg/kg/injection, schedule: Q01DX005 (oral), vehicle: water 101 % of control | dose: 500.0 mg/kg/injection, schedule: Q01DX Z (ip), vehicle: methylcellulose (MC) 110 % of control | dose: 500.0 mg/kg/injection, schedule: Q03HX008 (oral), vehicle: water 108 % of control | dose: 500.0 mg/kg/injection, schedule: Q04DX003 (oral), vehicle: water 105 % of control | dose: 500.0 mg/kg/injection, schedule: Q## X006 (oral), vehicle: water 102 % of control | dose: 592.0 mg/kg/injection, schedule: Q01DX001 (ip), vehicle: saline 105 % of control and 108 % of control | dose: 675.0 mg/kg/injection, schedule: Q06HX016 (ip), vehicle: saline 100 % of control | dose: 768.0 mg/kg/injection, schedule: Q## X008 (ip), vehicle: saline 111 % of control | dose: 800.0 mg/kg/injection, schedule: Q01DX001 (ip), vehicle: saline 102 % of control and 105 % of control and 106 % of control | dose: 800.0 mg/kg/injection, schedule: Q01DX001 (oral), vehicle: water 105 % of control | dose: 800.0 mg/kg/injection, schedule: Q01DX001 (sc), vehicle: saline 110 % of control | dose: 800.0 mg/kg/injection, schedule: Q## X003 (ip), vehicle: saline 108 % of control | dose: 800.0 mg/kg/injection, schedule: Q## X024 (ip), vehicle: saline 106 % of control | dose: 806.0 mg/kg/injection, schedule: Q01DX001 (ip), vehicle: saline 104 % of control | dose: 806.0 mg/kg/injection, schedule: Q08DX002 (ip), vehicle: saline 101 % of control | dose: 888.0 mg/kg/injection, schedule: Q01DX001 (ip), vehicle: saline 106 % of control and 111 % of control | dose: 900.0 mg/kg/injection, schedule: Q01DX001 (ip), vehicle: water 104 % of control | dose: 900.0 mg/kg/injection, schedule: Q03HX024 (ip), vehicle: saline 95 % of control | dose: 900.0 mg/kg/injection, schedule: Q#A X018 (ip), vehicle: water 94 % of control | dose: 1000.0 mg/kg/injection, schedule: Q01DX001 (ip), vehicle: water 101 % of control and 103 % of control | dose: 1000.0 mg/kg/injection, schedule: Q01DX001 (oral), vehicle: water 98 % of control | dose: 1000.0 mg/kg/injection, schedule: Q04DX003 (oral), vehicle: water 107 % of control | dose: 1200.0 mg/kg/injection, schedule: Q01DX001 (ip), vehicle: saline 105 % of control | dose: 1203.0 mg/kg/injection, schedule: Q01DX001 (ip), vehicle: saline 107 % of control | dose: 1203.0 mg/kg/injection, schedule: Q04DX003 (ip), vehicle: saline 110 % of control | dose: 1203.0 mg/kg/injection, schedule: Q08DX002 (ip), vehicle: saline 102 % of control | dose: 1333.0 mg/kg/injection, schedule: Q01DX001 (ip), vehicle: saline 106 % of control and 110 % of control | dose: 1600.0 mg/kg/injection, schedule: Q01DX001 (ip), vehicle: saline 107 % of control and 110 % of control | dose: 1600.0 mg/kg/injection, schedule: Q01DX001 (oral), vehicle: water 108 % of control | dose: 1600.0 mg/kg/injection, schedule: Q01DX001 (sc), vehicle: saline 107 % of control | dose: 1600.0 mg/kg/injection, schedule: Q01DX Z (oral), vehicle: saline 109 % of control | dose: 1796.0 mg/kg/injection, schedule: Q01DX001 (ip), vehicle: saline 109 % of control | dose: 1796.0 mg/kg/injection, schedule: Q08DX002 (ip), vehicle: saline 107 % of control | dose: 1800.0 mg/kg/injection, schedule: Q01DX001 (ip), vehicle: water 103 % of control | dose: 2000.0 mg/kg/injection, schedule: Q01DX001 (ip), vehicle: saline 110 % of control | dose: 2000.0 mg/kg/injection, schedule: Q01DX001 (ip), vehicle: water 101 % of control and 103 % of control | dose: 2000.0 mg/kg/injection, schedule: Q01DX001 (oral), vehicle: water 96 % of control | dose: 2000.0 mg/kg/injection, schedule: Q01DX Z (ip), vehicle: saline 96 % of control | dose: 2000.0 mg/kg/injection, schedule: Q01DX Z (ip), vehicle: water 94 % of control | dose: 2680.0 mg/kg/injection, schedule: Q08DX002 (ip), vehicle: saline 110 % of control | dose: 4000.0 mg/kg/injection, schedule: Q01DX001 (ip), vehicle: water 108 % of control | dose: 4000.0 mg/kg/injection, schedule: Q## X006 (oral), vehicle: water 107 % of control
